Test results from patent US9109041B2, “Analog compounds of analgesic peptides derived from the venom of crotalus durissus terrificus snakes, their uses, compositions, methods of preparation and purification” (priority 2004, dated 2015).

Tested on: allodynia induced by constriction of the sciatic nerve
Assay: allodynia induced by chronic constriction of the sciatic nerve (von Frey hairs)
Assay type: in vivo, rat
Conditions: saline + antagonist alone i.pl. (ICI 10, nor-BNI 50, CTOP 20 μg/paw); for paw withdrawal threshold (allodynia), FM 1 h: 1 h after treatment; for paw withdrawal threshold (allodynia), FM 3 h: 3 h after treatment; for paw withdrawal threshold (allodynia), BM: before surgery; for paw withdrawal threshold (allodynia), IM: day 14, before treatment
Method: For the induction of neuropathic pain, surgery was performed in the sciatic nerve, in accordance with the method described by Bennett, G. J and Xie, Y. K. (Pain, 33:87-107, 1988). The animals were anesthetized with halothane. The sciatic nerve was exposed in the middle region of the thigh, moving away the femoral biceps muscle. Close to the trifurcation of the sciatic nerve, 7 mm of distance from the trifurcation, 4 loose ligations were performed (chromed catgut 4-0) around it, distant from each other in approximately 1 mm. The bindings were performed along the nerve, up to 4-5 mm from the initial point. The incision was sutured in layers, using silk suture thread number 4-0.
Allodynia was evaluated for quantitative testing, in response to tactile stimulus applied to the paws of the rat, according to the method described by Chaplan el al. (1994), modified. In this test, the rats were placed, individually, in plastic cages, with meshed wire at the bottom, to allow access to the paws of these animals. Briefly, a logarithmic series of 10 calibrated Semmes-Weinstein monofilaments (von Frey hairs, Aesthesiometer Semmer-Weinstein, Stoelting Co., E.U.A) was applied to the right hind paw to determine the stimulus intensity threshold stiffness required to elicit a paw withdrawal response. Log stiffness of the hairs is determined by log 10 (mg×10) having the following values (the value in grams is between parenthesis): 3.61 (0.407 g); 3.84 (0.692 g); 4.08 (1.202 g); 4.17 (1.479 g); 4.31 (2.041 g); 4.56 (3.630 g); 4.74 (5.495 g); 4.93 (8.511 g); 5.07 (11.749 g) and 5.18 (15.136 g). It is important to point out that the filaments with weight greater than 15.136 g were not employed in the studies of allodynia.
The filaments were applied, one by one, perpendicularly, under the plantar area of both hind paws and maintained for a period of 8 seconds. The filament capable of eliciting the withdrawal of the paw, two consecutive times, was considered as the force in grams necessary to elicit the response (100% of response). In the absence of a response to the greater stimulus (15.135 g), this filament was considered as cut value.
The behavioral responses were used to calculate the 50% paw withdrawal threshold (absolute threshold), by fitting a gaussian integral psychometric function, using a maximum-likelihood fitting method. This fitting method allows parametric analyses.
The period of the application of the test and the treatments were the same as those used for determination of hyperalgesia (Table 12).
The results were analyzed by comparing the means of the basal and initial measurements or, when determined, by comparing the means obtained in the different experimental groups.
For this purpose, the animals were treated with CTOP, a specific μ receptor antagonist (20 μg/paw), nor-BNI, a specific κ receptor antagonist (50 μg/paw) or with ICI 174,864, a specific δ receptor antagonist (10 μg/paw). The antagonists were injected, by intraplantar route. The peptide was administered in the dose of 5 μg/kg, orally, immediately before the injection of the opioid antagonists.
The results were analyzed comparing the mean values of the basal and initial measurements, or of the initial and final measurements or, when determined, by comparing the mean values obtained in the different experimental groups (Tables 15 and 16).

Row | Compound | paw withdrawal threshold (allodynia), FM 1 h | paw withdrawal threshold (allodynia), FM 3 h | paw withdrawal threshold (allodynia), BM | paw withdrawal threshold (allodynia), IM
1 | Oc1ccc2c3c1O[C@H]1c4[nH]c5c(c4C[C@@]4(O)[C@@H](C2)N(CC2CC2)CC[C@]314)C[C@@]1(O)[C@H]2Cc3ccc(O)c4c3[C@@]1(CCN2CC1CC1)[C@H]5O4 [nor-BNI, nor-Binalthorphimine, reference compound] | 4.22 ± 0 log 10 (mg × 10) | 4.22 ± 0 log 10 (mg × 10) | 5.08 ± 0 log 10 (mg × 10) | 4.22 ± 0 log 10 (mg × 10)
2 | CTOP [reference compound] | 4.22 ± 0 log 10 (mg × 10) | 4.22 ± 0 log 10 (mg × 10) | 5.08 ± 0 log 10 (mg × 10) | 4.22 ± 0 log 10 (mg × 10)
